# Laboratory results taken from patent publication US20220090998A1, “URINE STABILIZATION” (QIAGEN GmbH, priority 2019, published 2022).
# Experiments:
# [1] = tested on: human 18S rDNA gene, 500 bp amplicon; settings: t0 to t4 d storage (FIG. 15)
# Method: Cell-free DNA from 4-4.8 ml stabilized or unstabilized urine was isolated with the QIAsymphony PAXgene Blood ccfDNA Kit (QIAGEN kit) protocol. The QIAsymphony robot mixed urine with proteinase K, binding buffer and magnetic beads. Beads with bound DNA were washed three times and DNA was eluted using 60 μl elution buffer.
# To measure the amount of cell-free DNA a real time PCR assay on Abi Prism HT7900 (Life technologies) was performed with 8 μl of eluate. In a 20 μl assay volume using QuantiTect Multiplex PCR Kit reagents (QIAGEN GmbH) two fragments of the human 18S rDNA gene were amplified in a multiplex PCR. Total quantification was achieved by comparison with a standard curve generated with human genomic DNA samples equivalent to 10.000 to 10 copies of human 18s rDNA gene.
# Quantification of the 66 bp fragment was used to reflect the total amount of 18S rDNA copies in the urine. Quantification of the 500 bp was used to determine the amount of 18S rDNA copies which derived from apoptotic or mechanically lysed urine cells.
# 200 ml urine each from four female and two male donors was collected. Aliquots of 10 ml urine were mixed within 15 min after sampling with 1.7 ml PBS or stabilizing reagent. […] The copy numbers of 18s rDNA were determined from duplicate samples in triplicates by real time PCR.
# [2] = tested on: human Y-chromosomale DYS14 gene, 66 bp amplicon; test: Real time PCR for Y-chromosomal DYS14 DNA: preservation of male cell-free DNA spiked into female urine
# Method: (§1) Cell-free DNA from 4-4.8 ml stabilized or unstabilized urine was isolated with the QIAsymphony PAXgene Blood ccfDNA Kit (QIAGEN kit) protocol.
# To measure the degradation of cell-free DNA, the relative yield of male cell-free DNA spiked into female samples was analyzed. A real time PCR assay on RotorGene Q (QIAGEN GmbH) was performed with 8 μl of eluate.
# Urine from one donor was centrifuged twice to remove all cells from the urine for spike-in into female urine. Urine was collected in larger bottles from two female and two male donors. In case of the two female donors 25 ml centrifuged and therefore cell-free male urine was added to the 200 ml female urine. Approximately 120 ml urine from each donor was filled into BD Vacutainer Urine Collection Cups. Urine was transferred from the cups into two spray dried EDTA tubes, one PAXgene Blood ccfDNA tube and one Streck cell-free DNA BCT tube per donor. One of the EDTA tubes per donor was opened and 1.7 ml of stabilization reagent R1 was added. All tubes were carefully inverted 5 times to mix the urine with the components.
# (§2) Cell-free DNA was subsequently purified on the QIAsymphony either directly after collection (t0) or after 1, 3 and 9 days incubation at room temperature. […] Relative yield of Y-chromosomale DYS14 DNA was determined from duplicate samples by real time PCR (no PCR replicates).
# Urine from one donor was centrifuged twice to remove all cells from the urine for spike in into female urine. 200 ml urine each from six female donors were collected in large bottles and mixed with 25 ml cell-free male urine directly after collection. Aliquots of 10 ml urine ([…]) were mixed with 1.7 ml reagent. […] All samples were processed in duplicates. Real time PCR for y-chromosomale DYS14 DNA was performed from duplicate samples.
# To analyse the effect of pH on cell-free DNA preservation, urine from one donor was centrifuged twice to remove all cells from the urine for spike in into female urine. 200 ml urine each from four female donors were collected in large bottles and mixed with 25 ml cell-free male urine directly after collection. […]
# [3] = tested on: human 18S rDNA gene, 66 bp amplicon; test: Real time PCR of 18S rDNA 66 bp fragment in cell-free DNA from urine
# Method: as §1
# Total quantification was achieved by comparison with a standard curve generated with human genomic DNA samples equivalent to 10.000 to 10 copies of human 18s rDNA gene.
# Quantification of the 500 bp was used to determine the amount of 18S rDNA copies which derived from apoptotic or mechanically lysed urine cells. […] Therefore 500 bp fragments can be considered to be derived from apoptotic, lysed or otherwise destructed urine cells.
# All samples were processed in duplicates.
# as §2
# 200 ml urine each from three donors was collected. […] For processing, the samples were centrifuged 15 min at 1900×g. Supernatant was centrifuged again (10 min 1900×g) and the supernatant from the second centrifugation was used for duplicate purification of cell-free DNA on a QIAsymphony system. The cell pellet obtained after the first centrifugation was resolved in 300 μl PBS. 200 μl of the resuspended cell pellet was used for extraction of the genomic DNA using the QIAamp Blood Mini kit. The remaining 100 μl were centrifuged on a glass slide and stained with Papanicolaou (see FIG. 7). […] Genomic DNA yield was measured on a Nanodrop instrument.
# Supernatant was centrifuged again (10 min at 1900×g) and the supernatant from the second centrifugation was used for duplicate purification of cell-free DNA on the QIAsymphony.
# For EDTA stabilized samples the overall increase in DNA can be deduced from the observed degradation (Dys 14—see FIG. 16) and increase (18s—see FIGS. 14 and 15).
smiles,measurement,setting,value
"O=C(O)CN(CCN(CC(=O)O)CC(=O)O)CC(=O)O [EDTA, Ethylenediaminetetraacetic acid]",decrease in the 500 bp fragment,[1],approx. 32 fold
same,"preservation of spiked in male cell-free DNA (DYS14 delta Ct versus t0), words","[2]; Example 2, 2 female donors, 1, 3 and 9 days at RT (FIG. 4)",neither prevents sufficiently cell free DNA degradation
same,Delta Ct t0-t4 d Dys 14,"[2]; male cell-free urine spiked in female urine, 4 days storage at RT (FIG. 16)",~2
same,"Reduction (of DYS14 DNA, from Delta Ct)",[2]; t0 to t4 d at RT,4 fold
same,Delta Ct t0-t4 d 18 s 66 bp,[3]; 4 days storage at RT (FIG. 14),2
same,"total DNA in urine over storage (18s rDNA 66 bp copies versus t0), words","[3]; Example 2, BD Vacutainer cup to tubes, 1, 3 and 9 days at RT, 4 donors (FIG. 3)",nor an increase in total DNA comprised in the urine due to DNA release from cells
same,Overall increase (in DNA resulting from cells),"[3]; deduced from observed degradation (Dys 14) and increase (18s), t0 to t4 d",4 × 4 = 16 fold
same,"Increase (of 18S 66 bp DNA, from Delta Ct)",[3]; t0 to t4 d at RT,4 fold
same,change in the 66 bp fragment,[3]; t0 to t4 d storage (FIG. 14),small increase
